Results on two compounds are retold here after patent publication US7385086B2 (priority 1997, dated 2008).

The subject of the assay is isoniazid (INH) resistant M. tuberculosis. The format is cell-based, Mycobacterium tuberculosis.

On to `CCCCCCCCS(=O)(=O)CC(N)=O` [HIII-50, n-Octanesulphonylacetamide], for which the growth inhibition result was “inhibits”. Compound `NNC(=O)c1ccncc1` [isoniazid, reference compound] registered an isoniazid resistance level greater than 0.4 µg/mL.
